Results from EPA's ToxValDB 9.5 (doi:10.2903/j.efsa.2009.1348).
Values after ≈ are worked out from the molar mass of the structure shown.

What was measured:
Oncorhynchus mykiss = details: chronic/long-term; duration: 28 days
Bird = details: for LD50: acute, unspecified
Bibionidae = details: chronic/long-term; duration: 28 days
Apis mellifera = details: acute; duration: 48 hours; oral; unspecified; mortality
Oryctolagus sp. = details: reproduction developmental; reproduction
Canidae = details: chronic; duration: 1 years; oral; Dog Other; organ weight
[1] = chronic/long-term
Daphnia magna = details: chronic/long-term; duration: 21 days; reproduction
Lepomis macrochirus = details: acute; duration: 96 hours; mortality

SMILES | NOEC (Oncorhynchus mykiss) | LD50 (Bird; oral, mortality) | NOEC (Bibionidae) | LD50 (Apis mellifera) | LEL (Aphidius rhopalosiphi; chronic/long-term, reproduction) | LEL (Aphidius rhopalosiphi; not reported, mortality) | NOAEL (Oryctolagus sp.) | NOAEL (Canidae) | NOAEL [1] | NOEC (Bird; reproductive) | LC50 (Bird; short-term, oral, feed, mortality) | LC50 (Tagia sp.; acute, mortality) | NOEC (Tagia sp.; chronic/long-term) | NOEC (Daphnia magna) | LC50 (Lepomis macrochirus) | LD50 (Rattus norvegicus; acute, oral, mortality) | NOAEL (Rattus norvegicus; chronic, duration: 2 years, organ weight) | NOAEL (Rattus norvegicus; reproduction developmental, body weight)
COC(=O)[C@@H](C)Oc1ccc(Oc2ncc(C(F)(F)F)cc2Cl)cc1 [Haloxyfop-P-methyl] | 0.0052 mg/L | 1160 mg/kg-day | – | – | – | – | – | – | – | – | – | – | – | – | – | – | – | –
C[C@@H](Oc1ccc(Oc2ncc(C(F)(F)F)cc2Cl)cc1)C(=O)O [Haloxyfop-P] | – | 414 mg/kg | 2.5 mg/L | > 100 µg/piece | 5.7 g/ha | 108 g/ha | 7.5 mg/kg-day | 0.5 mg/kg-day | 1 mg/kg-day | 17.1 mg/kg-day | > 1110 mg/kg-day | 830 mg/kg | 810 g/ha | 0.509 mg/L | 0.0884 µg/mL (≈ 0.244 µM) | 300 mg/kg | 0.065 mg/kg-day | 0.065 mg/kg-day
